Active and inactive are the calls of the source. The rule behind the calls is not given here.
Legend:
[1] = biological target: T1, Endothelial PAS domain-containing protein 1 (Homo sapiens, UniProt Q99814)
Description: Binding affinity to wild type His6-Gbeta1-fused HIF-2alpha PAS-B domain (240 to 350) (unknown origin) expressed in Escherichia coli by ITC analysis

[2] = biological target: T2, Endothelial PAS domain-containing protein 1 (Homo sapiens, UniProt Q99814, S304M)
[3] = biological target: T1, Endothelial PAS domain-containing protein 1; remark: listed apart in the source
Description: Binding affinity to wild type GST-tagged HIF-2alpha PAS-B (240 to 350) (unknown origin) expressed in Escherichia coli assessed as inhibition of interaction with His6-Gbeta1/FLAG fused ARNT PAS-B after 4 hrs by AlphaScreen assay

[4] = test system: Hep 3B2; experiment: Effect on HIF-1-mediated PGK1 mRNA expression in human Hep3B cells at 0.01 to 10 uM by RT-PCR analysis; type: cell-based
[5] = biological target: Hypoxia-inducible factor 1-alpha (Homo sapiens, UniProt Q16665); experiment: Binding affinity to wild type GST-fused HIF-1alpha PAS-B domain (238 to 349) (unknown origin) expressed in Escherichia coli assessed as compound-protein complex formation by ITC analysis
Chain of Hypoxia-inducible factor 1-alpha (Q16665 whole entry, the tested form may be a part): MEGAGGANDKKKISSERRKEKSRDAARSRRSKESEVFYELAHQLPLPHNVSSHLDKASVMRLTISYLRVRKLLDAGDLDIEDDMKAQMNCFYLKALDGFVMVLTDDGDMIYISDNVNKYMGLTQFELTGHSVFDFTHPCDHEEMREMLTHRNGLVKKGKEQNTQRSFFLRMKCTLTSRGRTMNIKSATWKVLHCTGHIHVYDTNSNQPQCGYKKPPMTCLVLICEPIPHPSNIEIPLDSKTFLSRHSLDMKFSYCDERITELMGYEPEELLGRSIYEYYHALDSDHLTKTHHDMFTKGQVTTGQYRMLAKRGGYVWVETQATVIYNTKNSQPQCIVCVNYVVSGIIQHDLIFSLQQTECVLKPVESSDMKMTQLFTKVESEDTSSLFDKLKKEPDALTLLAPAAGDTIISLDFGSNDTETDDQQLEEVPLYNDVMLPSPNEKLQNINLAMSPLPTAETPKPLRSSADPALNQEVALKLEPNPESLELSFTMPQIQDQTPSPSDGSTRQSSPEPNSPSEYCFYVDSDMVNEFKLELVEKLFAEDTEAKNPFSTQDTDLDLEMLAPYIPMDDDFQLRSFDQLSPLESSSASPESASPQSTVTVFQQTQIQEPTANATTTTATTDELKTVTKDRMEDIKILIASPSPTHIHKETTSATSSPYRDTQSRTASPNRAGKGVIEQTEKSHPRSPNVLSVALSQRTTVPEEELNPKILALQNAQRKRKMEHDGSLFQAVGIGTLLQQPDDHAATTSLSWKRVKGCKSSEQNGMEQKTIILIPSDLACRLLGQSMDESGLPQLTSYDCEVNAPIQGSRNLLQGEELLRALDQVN

[6] = biological target: T1, Endothelial PAS domain-containing protein 1; experiment: Inhibition of HIF-2alpha in human Hep3B cells assessed as downregulation of EPO mRNA expression by RT-PCR analysis
[7] = biological target: T2, Endothelial PAS domain-containing protein 1; experiment: Binding affinity to His6-Gbeta1-fused HIF-2alpha PAS-B domain S304M mutant (240 to 350) (unknown origin) expressed in Escherichia coli by ITC analysis
[8] = biological target: T1, Endothelial PAS domain-containing protein 1; conditions: Hep 3B2, 0.01 to 10 uM
Description: Inhibition of HIF-2alpha in human Hep3B cells assessed as downregulation of EPO mRNA expression at 0.01 to 10 uM by RT-PCR analysis

T1 sequence (Q99814 whole entry, the tested form may be a part): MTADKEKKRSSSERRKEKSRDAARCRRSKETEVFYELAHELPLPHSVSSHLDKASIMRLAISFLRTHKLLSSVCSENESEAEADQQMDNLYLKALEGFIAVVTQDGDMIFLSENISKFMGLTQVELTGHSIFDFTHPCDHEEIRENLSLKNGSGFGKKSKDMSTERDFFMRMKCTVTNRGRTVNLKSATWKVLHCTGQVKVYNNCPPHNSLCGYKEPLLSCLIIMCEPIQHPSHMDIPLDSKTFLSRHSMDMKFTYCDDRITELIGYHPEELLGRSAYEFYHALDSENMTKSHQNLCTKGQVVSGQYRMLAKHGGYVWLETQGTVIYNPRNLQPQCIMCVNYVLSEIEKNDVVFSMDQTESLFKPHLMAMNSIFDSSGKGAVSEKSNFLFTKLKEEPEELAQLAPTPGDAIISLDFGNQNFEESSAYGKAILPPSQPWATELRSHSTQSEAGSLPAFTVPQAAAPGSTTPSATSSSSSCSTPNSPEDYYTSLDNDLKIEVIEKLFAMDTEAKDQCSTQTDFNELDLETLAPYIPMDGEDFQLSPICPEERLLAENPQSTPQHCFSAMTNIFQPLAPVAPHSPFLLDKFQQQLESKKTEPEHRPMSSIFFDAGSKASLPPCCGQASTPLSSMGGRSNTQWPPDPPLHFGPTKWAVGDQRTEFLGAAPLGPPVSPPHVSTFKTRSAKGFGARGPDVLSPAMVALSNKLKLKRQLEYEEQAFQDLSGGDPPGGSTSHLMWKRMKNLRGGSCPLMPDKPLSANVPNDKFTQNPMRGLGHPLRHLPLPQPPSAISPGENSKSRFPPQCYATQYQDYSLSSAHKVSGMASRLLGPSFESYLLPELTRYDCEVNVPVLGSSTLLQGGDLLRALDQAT
T2 sequence (Q99814 whole entry S304M, the tested form may be a part): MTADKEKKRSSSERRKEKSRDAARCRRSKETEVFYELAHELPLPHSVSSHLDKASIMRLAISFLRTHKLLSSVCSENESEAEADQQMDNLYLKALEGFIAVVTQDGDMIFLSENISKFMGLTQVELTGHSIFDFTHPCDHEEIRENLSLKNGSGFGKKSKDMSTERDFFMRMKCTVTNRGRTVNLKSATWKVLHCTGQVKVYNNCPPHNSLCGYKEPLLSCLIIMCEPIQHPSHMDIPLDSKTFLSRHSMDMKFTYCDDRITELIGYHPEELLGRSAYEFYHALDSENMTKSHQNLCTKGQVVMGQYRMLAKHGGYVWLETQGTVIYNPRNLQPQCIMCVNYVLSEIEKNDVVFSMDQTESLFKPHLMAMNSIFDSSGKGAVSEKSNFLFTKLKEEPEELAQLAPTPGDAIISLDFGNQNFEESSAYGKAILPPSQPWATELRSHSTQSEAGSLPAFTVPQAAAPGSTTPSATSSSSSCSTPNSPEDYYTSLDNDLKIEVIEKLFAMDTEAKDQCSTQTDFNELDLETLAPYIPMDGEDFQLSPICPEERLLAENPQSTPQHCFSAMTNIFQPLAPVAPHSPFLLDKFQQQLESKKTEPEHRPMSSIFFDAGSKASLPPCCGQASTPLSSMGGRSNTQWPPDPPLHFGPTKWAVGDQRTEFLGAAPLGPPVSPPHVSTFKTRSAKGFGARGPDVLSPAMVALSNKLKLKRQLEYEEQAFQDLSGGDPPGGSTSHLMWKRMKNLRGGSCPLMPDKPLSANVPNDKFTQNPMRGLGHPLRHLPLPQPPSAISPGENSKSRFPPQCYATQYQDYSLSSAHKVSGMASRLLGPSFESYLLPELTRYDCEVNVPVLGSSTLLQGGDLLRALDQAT

Structure (SMILES)	Kd [1] [nM]	IC50 [2] [µM]	IC50 [3] [nM]	other results
Fc1ccc(Cl)c(F)c1C1CC(c2cccc(Br)c2)Nc2nnnn21 (racemic)	85	–	–	–
Clc1ccc(Br)cc1C1CC(c2cccc(Br)c2)Nc2nnnn21 (racemic)	126	–	–	–
Clc1cccc(C2CC(c3cccc(Br)c3)Nc3nnnn32)c1 (racemic)	116	–	–	–
CC(C)CC1CC(c2cccc(Br)c2)Nc2nnnn21 (racemic)	1170	–	–	–
Clc1ccccc1C1CC(c2cccc(Br)c2)Nc2nnnn21 (racemic)	361	–	–	–
Fc1c(Br)ccc(Cl)c1C1CC(c2cccc(Br)c2)Nc2nnnn21 (racemic)	85	–	–	–
Brc1cccc([C@@H]2C[C@H](c3cccc(Br)c3)n3nnnc3N2)c1	63	> 30	112	–
Fc1cc(Br)cc([C@@H]2C[C@H](c3cccc(Br)c3)n3nnnc3N2)c1	23	14.5	43	Activity [4]: inactive; Kd [5]: > 5 µM; IC50 [6]: < 1000 nM; Kd [7]: 2000 nM
Fc1ccc(F)c(C2CC(c3cccc(Br)c3)Nc3nnnn32)c1F (racemic)	393	–	–	–
Fc1c(Cl)cccc1C1CC(c2cccc(Br)c2)Nc2nnnn21 (racemic)	38	–	–	–
Fc1cc(Br)cc([C@H]2C[C@@H](c3ccccc3)n3nnnc3N2)c1	> 2000	> 30	> 30000	–
Fc1cc(Br)cc([C@@H]2C[C@H](c3ccccc3)n3nnnc3N2)c1	165	10.1	97	–
Fc1ccc(I)cc1C1CC(c2cccc(Br)c2)Nc2nnnn21 (racemic)	159	–	–	–
Brc1cccc([C@H]2C[C@@H](c3cccc(Br)c3)n3nnnc3N2)c1	> 2000	> 30	> 30000	–
Fc1c(Cl)ccc(Cl)c1C1CC(c2cccc(Br)c2)Nc2nnnn21 (racemic)	194	–	–	–
Fc1c(Br)ccc(Br)c1C1CC(c2cccc(Br)c2)Nc2nnnn21 (racemic)	240	–	–	–
Fc1cc(Br)cc(C2CC(c3cccc(Br)c3)n3nnnc3N2)c1 (racemic)	28	–	–	–

Structure (SMILES)	Kd [1] [nM]	IC50 [2] [µM]	IC50 [3] [nM]	other results
Fc1ccc(Br)c(F)c1C1CC(c2cccc(Br)c2)Nc2nnnn21 (racemic)	49	–	–	–
Clc1ccc(Br)cc1[C@@H]1C[C@H](c2cccc(Br)c2)Nc2nnnn21	> 2000	> 30	> 30000	–
Brc1cccc(C2CC(c3cccc(Br)c3)n3nnnc3N2)c1 (racemic)	70	–	–	–
Fc1ccccc1C1CC(c2cccc(Br)c2)Nc2nnnn21 (racemic)	327	–	–	–
Fc1cc(Br)cc([C@H]2C[C@@H](c3cccc(Br)c3)n3nnnc3N2)c1	> 2000	> 30	> 30000	inhibition [8]: inactive
Brc1cccc([C@H]2C[C@@H](c3ccccc3Br)n3nnnc3N2)c1	> 2000	> 30	28300	–
Brc1cccc(C2CC(c3ccccc3Br)n3nnnc3N2)c1 (racemic)	400	–	–	–
Brc1cccc(C2CC(c3ccccc3I)n3nnnc3N2)c1 (racemic)	766	–	–	–
Clc1ccc(Br)cc1[C@H]1C[C@@H](c2cccc(Br)c2)Nc2nnnn21	125	23.9	87	–
Fc1ccc(Br)c(F)c1[C@H]1C[C@@H](c2cccc(Br)c2)Nc2nnnn21	34	3.8	32	–
Fc1cc(Br)cc(C2CC(c3ccccc3)n3nnnc3N2)c1 (racemic)	216	–	–	–
Fc1ccc(Br)c(F)c1[C@@H]1C[C@H](c2cccc(Br)c2)Nc2nnnn21	> 2000	> 30	22300	–
Fc1ccc(Br)c(Cl)c1C1CC(c2cccc(Br)c2)Nc2nnnn21 (racemic)	411	–	–	–
Clc1ccccc1[C@H]1C[C@@H](c2cccc(Br)c2)Nc2nnnn21	294	15.9	195	–
Brc1cccc([C@@H]2C[C@H](c3ccccc3Br)n3nnnc3N2)c1	360	18.9	314	–
Clc1ccccc1[C@@H]1C[C@H](c2cccc(Br)c2)Nc2nnnn21	> 2000	> 30	> 30000	–

From ChEMBL document CHEMBL3596122, “Isoform-Selective and Stereoselective Inhibition of Hypoxia Inducible Factor-2” (J Med Chem, 2015)
